Ends that are not written are not given here.
What was measured:
PBMC from RA patients = assay: Proliferative responses of PBMC from RA patients ([3H]thymidine incorporation); type: cell-based, human; details: peptide 50 μg/ml, mean of three or four measurements
[1] = biological target: T1, HLA-DR4 (DRB1*0401) molecules, affinity purified (human); assay: semi-quantitative competition with biotinylated IHA(307-319)F for purified HLA-DR; range taken from the table legend for grade +
T1 construct: mature; Used at 0.05-5 uM in the assay

[2] = biological target: T1, HLA-DR4 (DRB1*0401) molecules, affinity …; assay: semi-quantitative competition with biotinylated IHA(307-319)F for purified HLA-DR; relative IC50 grade read by eye from ECL blot
[3] = biological target: T1, HLA-DR4 (DRB1*0401) molecules, affinity …; assay: semi-quantitative competition with biotinylated IHA(307-319)F for purified HLA-DR; range taken from the table legend for grade ++

AGWLADGSLRYPI [HAG3] was tested, and the “Proliferative response of PBMC, [3H]TdR incorporation” value (shortened to “Proliferative response of PBMC”) (PBMC from RA patients; donor 191 (RA), background 320) was 233 count per 5 min and the “Proliferative response of PBMC” value (PBMC from RA patients; donor 209 (RA), background 405) was 1094 count per 5 min.

With AGWLADRSVRYPI [HAG2] the “Proliferative response of PBMC” value (PBMC from RA patients; donor 191 (RA), background 320) was 1061 count per 5 min and the “Proliferative response of PBMC” value (PBMC from RA patients; donor 209 (RA), background 405) was 1115 count per 5 min.

AGWLSDGSVQYPI [HCLP1] was tested, and the “Proliferative response of PBMC” value (PBMC from RA patients; donor 209 (RA), background 405) was 1503 count per 5 min and the “Proliferative response of PBMC” value (PBMC from RA patients; donor 227 (RA), background 833) was 1964 count per 5 min.

For AGWLSDGSVQYPI (also called HCIP1) [HCLP1], the IC50 [1] was 10 to 100 µM and the “relative binding affinity IC50 (eIC50)” value [2] was 10 to 100 µM.

B1: HAG3 (peptide)
peptide: H-AGWLADGSLRYPI-OH
notes: Synthetic peptide with free amino and carboxy termini; The residue range on HAG is not tied to this label
For B1, the “relative binding affinity IC50 (eIC50)” value [2] was 1 to 10 µM and the IC50 [3] was 1 to 10 µM.

B2: HAG2 (peptide)
peptide: H-AGWLADRSVRYPI-OH
notes: as for B1
For B2, the “relative binding affinity IC50 (eIC50)” value [2] was 1 to 10 µM and the IC50 [3] was 1 to 10 µM.

Source: US20020177554A1, “Novel peptides for use in treatment of T-cell mediated cartilage destruction in autoimmune diseases” (Akzo Nobel N.V., priority 1995, published 2002)
